The record followed here is patent publication US20230357179A1, “RAF KINASE INHIBITORS AND METHODS OF USE THEREOF” (Deciphera Pharmaceuticals, LLC, priority 2021, published 2023).

The subject of one test is WM3629 cells. As to the kind of experiment: WM3629 cell proliferation assay (2), resazurin, 384-well. Format: cell-based. Conditions: inhibition of cell proliferation, 67-72 hours. The protocol:
WM3629 Cell Proliferation Assay (2)
WM3629 cells (#WM3629-01-0001) are obtained from Rockland Immunochemicals Inc (Gilbertsville, PA). Briefly, cells were grown in MCDB 153 medium (Sigma, #M7403, St. Louis, MO) supplemented with 20% Leibovitz's L-15 (ThermoFisher #11415-064, Waltham, MA), 2% heat inactivated fetal bovine serum (ThermoFisher, #A3840001, Waltham, MA), 5 μg/mL Insulin (Bovine Pancreas) (Sigma, #I0516, St. Louis, MO), 1.68 mM Calcium Chloride (Sigma, #C-34006, St. Louis, MO) and 1% Penicillin/Streptomycin/L-Glutamine (ThermoFisher #10378016, Waltham, MA) at 37° C., 5% CO2, and 95% humidity. Cells are expanded until reaching 70-95% confluency at which point they are sub-cultured or harvested for assay use. Using the Beckman Coulter Echo 650, a serial dilution of test compound is dispensed into a 384-well black clear bottom plate in triplicate. One thousand one hundred twenty-five cells are added per well in 50 μL complete growth medium in the 384-well plate. Plates are incubated for 67-72 hours at 37° C., 5% CO2, and 95% humidity. […] Plates are read on a Synergy2 or equivalent reader (Biotek, Winooski VT) using an excitation of 540 nm and an emission of 600 nm. Data is analyzed using Prism software (GraphPad, San Diego, CA) to calculate IC50 values.
On the technique in general: Alamar Blue is a resazurin reagent that responds to reducing activity.

A further test deals with Miapaca-2 cells. Briefly: MiaPaca-2 combination cell proliferation assay (1) with cobimetinib, 96-well. The format is cell-based. Conditions: inhibition of cell proliferation, read-out: MiaPaca-2 Combo (1) IC50. On the procedure:
MiaPaca-2 Combination Cell proliferation Assay (1)
Miapaca-2 cells (catalog #CRL-1420) are obtained from the American Type Culture Collect (ATCC, Manassas, VA). Briefly, cells were grown in DMEM supplemented with 10% characterized fetal bovine serum (Invitrogen, Carlsbad, CA), 2.5% New Zealand sourced horse serum and 1% Penicillin/Streptomycin/L-Glutamine at 37° C., 5% CO2, and 95% humidity. Cells are expanded until reaching 70-95% confluency at which point they are subcultured or harvested for assay use. A serial dilution of test compound was dispensed into multiple 96-well black clear bottom plates in triplicate. A serial dilution of complete growth medium containing cobimetinib was prepared at twice the final concentration and 100 μL was dispensed across the test compound titration in triplicate. Three thousand cells are added per well in 100 μL complete growth medium in each 96-well plate. Plates are incubated for 67-72 hours at 37° C., 5% CO2, and 95% humidity. At the end of the incubation, 40 μL of a 440 μM solution of resazurin (Sigma, St. Louis, MO) in PBS is added to each well of the plate and plates are incubated for an additional 5-7 hours at 37° C., 5% CO2, and 95% humidity. Plates are read on a Synergy2 or equivalent reader (Biotek, Winooski VT) using an excitation of 540 nm and an emission of 600 nm. Drug synergy was assessed via BLISS analysis in the Combenefit software (Cancer Research UK Cambridge Institute, Cambridge, UK). Data is analyzed using Prism software (GraphPad, San Diego, CA) to calculate IC50 values. Shifts in test compound IC50 values are reported from top-constrained combination therapy curves.

A word on the IC50: it is the concentration that inhibits the measured activity by half. Regarding `CNC(=O)c1cc(-c2cc(-c3cc(NC(=O)N4CC[C@H](C(F)(F)F)C4)ccc3C)ccn2)ccn1` [Example 215], the IC50 in the test with WM3629 cells is 0.5 to 1 µM.

Regarding `Cc1cc(F)c(NC(=O)NCCC2(C)CC2)cc1-c1cc(OCCO)nc(-c2ccnc3[nH]ncc23)c1` [Example 87], the IC50 with Miapaca-2 cells lay within 0.1 to 0.5 µM.

With `CNC(=O)c1cc(-c2cncc(-c3cc(NC(=O)N4CC[C@H](C(F)(F)F)C4)ccc3C)c2)ccn1` [Example 228], the IC50 with WM3629 cells lay in the range of 1 to 10 µM.
